Assay results from patent US7538131B2, “2-{-3-′2-(phenyl)-oxazol-4-ylmethoxymethyl-cyclohexylmethoxy}-propionic acid derivatives useful as peroxisome proliferator-activated receptor (PPAR) ligands for the treatment of hyperlipidemia and diabetes” (Sanofi-Aventis Deutschland GmbH, priority 2004, dated 2009).

Legend:
human PPARalpha = target: T1, human PPARalpha (Homo sapiens, UniProt Q07869); assay: Cellular PPARalpha assay (stably transfected HEK luciferase reporter cell line); type: cell-based; conditions: GR-GAL4-humanPPARalpha-LBD, 24 h
T1 construct: human PPARalpha receptor (amino acids S167-Y468); expressed in transfected cells; host or cells: HEK cells (stably transfected, pcDNA3, CMV promoter)
T1 sequence (Q07869 167-468): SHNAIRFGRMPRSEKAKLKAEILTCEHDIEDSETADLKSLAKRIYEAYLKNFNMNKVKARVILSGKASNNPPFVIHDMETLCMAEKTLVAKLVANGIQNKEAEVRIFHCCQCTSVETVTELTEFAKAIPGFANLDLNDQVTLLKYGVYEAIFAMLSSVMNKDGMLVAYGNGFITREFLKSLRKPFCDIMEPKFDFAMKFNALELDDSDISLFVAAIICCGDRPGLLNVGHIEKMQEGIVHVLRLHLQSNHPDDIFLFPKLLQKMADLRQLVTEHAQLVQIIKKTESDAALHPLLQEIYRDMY
Method: 1) Determination of EC50 Values of PPAR Agonists in the Cellular PPARalpha Assay
The activity of the novel compounds of the present invention was tested as follows The potency of substances which bind to human PPARalpha and activate it in an agonistic manner is analyzed using a stably transfected HEK cell line (HEK=human embryo kidney) which is referred to here as PPARalpha reporter cell line. It contained two genetic elements, a luciferase reporter element (pdeltaM-GAL4-Luc-Zeo) and a PPARalpha fusion protein (GR-GAL4-humanPPARalpha-LBD) which mediates expression of the luciferase reporter element depending on a PPARalpha ligand. The stably and constitutively expressed fusion protein GR-GAL4-humanPPARalpha-LBD binds in the cell nucleus of the PPARalpha reporter cell line via the GAL4 protein portion to the GAL4 DNA binding motifs 5′-upstream of the luciferase reporter element which was stably integrated in the genome of the cell line. There is only little expression of the luciferase reporter gene without addition of a PPARalpha ligand if fatty acid-depleted fetal calf serum (cs-FCS) is used in the assay. PPARalpha ligands bind and activate the PPARalpha fusion protein and thereby bring about expression of the luciferase reporter gene. The luciferase which is formed can be detected by means of chemiluminescence via an appropriate substrate.
The PPARalpha reporter cell line was prepared in two steps. Firstly, the luciferase reporter element was constructed and stably transfected into HEK cells. For this purpose, five binding sites of the yeast transcription factor GAL4 (in each case 5′-CGGAGTACTGTCCTCCGAG-3′) were cloned in 5′-upstream of a 68 bp-long minimal MMTV promoter (Genbank Accession #V01175). The minimal MMTV promoter section contains a CCAAT box and a TATA element in order to enable efficient transcription by RNA polymerase II. The cloning and sequencing of the GAL4-MMTV construct took place in analogy to the description of Sambrook J. et. al. (Molecular Cloning, Cold Spring Harbor Laboratory Press, 1989). Which is hereby incorporated by reference herein.
The complete Photinus pyralis luciferase gene (Genbank Accession #M15077) was cloned in 3′-downstream of the GAL4-MMTV element. After sequencing, the luciferase reporter element consisting of five GAL4 binding sites, MMTV promoter and luciferase gene was subcloned into a plasmid which confers zeozin resistance in order to obtain the plasmid pdeltaM-GAL4-Luc-Zeo. This vector was transfected into HEK cells in accordance with the statements in Ausubel, F.M. et al. (Current Protocols in Molecular Biology, Vol. 1-3, John Wiley & Sons, Inc., 1995).
In a second step, the PPARalpha fusion protein (GR-GAL4-humanPPARalpha-LBD) was introduced into the stable cell clone described. For this purpose, initially the cDNA coding for the N-terminal 76 amino acids of the glucocorticoid receptor (Genbank Accession # P04150) was linked to the cDNA section coding for amino acids 1-147 of the yeast transcription factor GAL4 (Genbank Accession #P04386). The cDNA of the ligand-binding domain of the human PPARalpha receptor (amino acids S167-Y468; Genbank Accession #S74349) was cloned in at the 3′ end of this GR-GAL4 construct. The fusion construct prepared in this way (GR-GAL4-humanPPARalpha-LBD) was subcloned into the plasmid pcDNA3 (from Invitrogen) in order to enable constitutive expression therein by the cytomegalovirus promoter. This plasmid was linearized with a restriction endonuclease and stably transfected into the previously described cell clone containing the luciferase reporter element. The finished PPARalpha reporter cell line which contains a luciferase reporter element and constitutively expresses the PPARalpha fusion protein (GR-GAL4-humanPPARalpha-LBD) was isolated by selection with zeozin (0.5 mg/ml) and G418 (0.5 mg/ml).
The activity of PPARalpha agonists was determined in a 3-day assay which is described below: […]

human PPARgamma = target: T2, human PPARgamma (Homo sapiens, UniProt P37231); assay: Cellular PPARgamma assay (transiently transfected HEK cells, luciferase reporter); type: cell-based; conditions: GAL4-humanPPARgammaLBD, firefly/Renilla luciferase ratio, 48 h
T2 construct: human PPARgamma receptor (amino acids 1152-Y475); expressed in transfected cells; host or cells: HEK cells (transiently transfected, pcDNA3-GAL4-humanPPARgammaLBD)
T2 sequence (P37231 182-477 isoform P37231-2 limits assumed): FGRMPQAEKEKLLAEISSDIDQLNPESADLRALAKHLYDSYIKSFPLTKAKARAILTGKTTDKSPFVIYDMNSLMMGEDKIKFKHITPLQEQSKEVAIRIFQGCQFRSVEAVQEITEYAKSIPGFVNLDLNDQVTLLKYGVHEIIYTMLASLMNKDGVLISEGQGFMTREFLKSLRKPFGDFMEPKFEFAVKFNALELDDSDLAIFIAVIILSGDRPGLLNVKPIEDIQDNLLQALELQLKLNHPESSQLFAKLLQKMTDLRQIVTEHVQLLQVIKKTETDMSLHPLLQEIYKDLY
Source text: 4) Determination of EC50 Values of PPAR Agonists in the Cellular PPARgamma Assay
A transient transfection system is employed to determine the cellular PPARgamma activity of PPAR agonists. It is based on the use of a luciferase reporter plasmid (pGL3basic-5xGAL4-TK) and of a PPARgamma expression plasmid (pcDNA3-GAL4-humanPPARgammaLBD). Both plasmids are transiently transfected into human embryonic kidney cells (HEK cells). There is then expression in these cells of the fusion protein GAL4-humanPPARgammaLBD which binds to the GAL4 binding sites of the reporter plasmid. In the presence of a PPARgamma-active ligand, the activated fusion protein GAL4-humanPPARgammaLBD induces expression of the luciferase reporter gene, which can be detected in the form of a chemiluminescence signal after addition of a luciferase substrate. As a difference from the stably transfected PPARalpha reporter cell line, in the cellular PPARgamma assay the two components (luciferase reporter plasmid and PPARgamma expression plasmid) are transiently transfected into HEK cells because stable and permanent expression of the PPARgamma fusion protein is cytotoxic.
The luciferase reporter plasmid pGL3basic-5xGAL4-TK is based on the vector pGL3basic from Promega. The reporter plasmid is prepared by cloning five binding sites of the yeast transcription factor GAL4 (each binding site with the sequence 5′-CTCGGAGGACAGTACTCCG-3′), together with a 160 bp-long thymidine kinase promoter section (Genbank Accession #AF027128) 5′-upstream into pGL3basic. 3′-downstream of the thymidine kinase promoter is the complete luciferase gene from Photinus pyralis (Genbank Accession # Ml 5077), which is already a constituent of the plasmid pGL3basic used. The cloning and sequencing of the reporter plasmid pGL3basic-5xGAL4-TK took place in analogy to the description in Sambrook J. et. al. (Molecular cloning, Cold Spring Harbor Laboratory Press, 1989).
The PPARgamma expression plasmid pcDNA3-GAL4-humanPPARgammaLBD was prepared by first cloning the cDNA coding for amino acids 1-147 of the yeast transcription factor GAL4 (Genbank Accession #P04386) into the plasmid pcDNA3 (from Invitrogen) 3′-downstream of the cytomegalovirus promoter. Subsequently, the cDNA of the ligand-binding domain (LBD) of the human PPARgamma receptor (amino acids […]; Accession #g1480099) 3′-downstream of the GAL4 DNA binding domain was cloned. Cloning and sequencing of the PPARgamma expression plasmid pcDNA3-GAL4-humanPPARgammaLBD again took place in analogy to the description in Sambrook J. et. al. (Molecular cloning, Cold Spring Harbor Laboratory Press, 1989). Besides the luciferase reporter plasmid pGL3basic-5xGAL4-TK and the PPARgamma expression plasmid pcDNA3-GAL4-humanPPARgammaLBD, also used for the cellular PPARgamma assay are the reference plasmid pRL-CMV (from Promega) and the plasmid pBluescript SK(+) from Stratagene. All four plasmids were prepared using a plasmid preparation kit from Qiagen, which ensured a plasmid quality with a minimal endotoxin content, before transfection into HEK cells.
The activity of PPARgamma agonists is determined in a 4-day assay which is described below. Before the transfection, HEK cells were cultivated in DMEM medium (#41965-039, Invitrogen) which was mixed with the following additions: 10% FCS (#16000-044, Invitrogen),1% penicillin-streptomycin solution (#15140-122, Invitrogen) and 2 mM L-glutamine (#25030-024, Invitrogen).
Solution A, a transfection mixture which contains all four plasmids previously described in addition to DMEM medium, was prepared. […]

EC50 (human PPARalpha) [nM] | EC50 (human PPARgamma) [nM] | Structure (SMILES)
70.9 | 1790 | CC(C)c1oc(-c2ccc3ccccc3c2)nc1COC[C@@H]1CCC[C@H](COC(C)(C)C(=O)O)C1 [Example 11, 2-{(1S,3R)-3-[5-Isopropyl-2-(naphtha-2-yl)oxazol-4-ylmethoxymethyl]cyclohexylmethoxy}-2-methylpropionic acid]
5.5 | 133 | Cc1ccc(-c2nc(COC[C@H]3CCC[C@@H](COC(C)(C)C(=O)O)C3)c(C(C)C)o2)cc1C [Example 12, 2-{(1R,3S)-3-[2-(3,4-Dimethylphenyl)-5-isopropyloxazol-4-ylmethoxymethyl]cyclohexylmethoxy}-2-methylpropionic acid]
313 | 124 | Cc1oc(-c2ccc(-c3ccccc3)cc2)nc1COC[C@H]1CCC[C@@H](COC(C)(C)C(=O)O)C1 [Example 13, 2-[(1R,3S)-3-(2-Biphenyl-4-yl-5-methyloxazol-4-ylmethoxymethyl)cyclohexylmethoxy]-2-methylpropionic acid]
18.7 | 127 | CC(C)c1oc(-c2ccc3ccccc3c2)nc1COC[C@H]1CCC[C@@H](COC(C)(C)C(=O)O)C1 [Example 14, 2-{(1R,3S)-3-[5-Isopropyl-2-(naphth-2-yl)oxazol-4-ylmethoxymethyl]cyclohexylmethoxy}-2-methylpropionic acid]
12.7 | 199 | CC(C)c1oc(-c2cccc(C(F)(F)F)c2)nc1COC[C@H]1CCC[C@@H](COC(C)(C)C(=O)O)C1 [Example 16, 2-{(1R,3S)-3-[5-Isopropyl-2-(3-trifluoromethylphenyl)oxazol-4-ylmethoxymethyl]cyclohexylmethoxyl}-2-methylpropionic acid]
42 | 109 | CC(C)Cc1ccc(-c2nc(COC[C@H]3CCC[C@@H](COC(C)(C)C(=O)O)C3)c(C(C)C)o2)cc1 [Example 17, 2-{(1R,3S)-3-[2-(4-Isobutylphenyl)-5-isopropyloxazol-4-ylmethoxymethyl]cyclohexylmethoxy}-2-methylpropionic acid]
20.5 | 38.3 | CC(C)c1oc(-c2ccc(C(C)(C)C)cc2)nc1COC[C@H]1CCC[C@@H](COC(C)(C)C(=O)O)C1 [Example 18, 2-{(1R,3S)-3-[2-(4-tert-butylphenyl)-5-isopropyloxazol-4-ylmethoxymethyl]cyclohexylmethoxy}-2-methylpropionic acid]
1.8 | 192 | CCc1oc(-c2ccc3ccccc3c2)nc1COC[C@H]1CCC[C@@H](COC(C)(C)C(=O)O)C1 [Example 19, 2-[(1R,3S)-3-(5-Ethyl-2-naphthalen-2-yl-oxazol-4-ylmethoxymethyl)cyclohexylmethoxy]-2-methylpropionic acid]
149 | 71.4 | Cc1oc(-c2ccc(Oc3ccccc3)cc2)nc1COC[C@H]1CCC[C@@H](COC(C)(C)C(=O)O)C1 [Example 20, 2-Methyl-2-{(1R,3S)-3-[5-methyl-2-(4-phenoxyphenyl)oxazol-4-ylmethoxymethyl]cyclohexylmethoxy}propionic acid]
1.6 | 184 | CCc1oc(-c2ccc(C)c(C)c2)nc1COC[C@H]1CCC[C@@H](COC(C)(C)C(=O)O)C1 [Example 21, 2-{(1R,3S)-3-[2-(3,4-Dimethylphenyl)-5-ethyloxazol-4-ylmethoxymethyl]cyclohexylmethoxyl}-2-methylpropionic acid]
